Read-outs that look alike come from different tables or passages of the source.
Legend:
[1] = test system: NIH 3T3 cells carrying activated EJras oncogene; experiment: Prevention of neoplastic transformation, oncogene transfer (ras-transformed foci); assay type: cell-based; settings: treatment initiated 24-48 hr after oncogene transfer, scored 14-21 days later
Source text: Left: Untreated control cells at about 3 weeks after DNA transfer. Middle: control of cells with as oncogenes, showing the rate of spontaneous transformation. Right: Oncogene-transfected cells, […] with NaPA.
The effect was reversible upon cessation of treatment. In treated humans, however, the fate of the premalignant cells may be substantially different due to involvement of humoral and cellular immunity (see below).

[2] = test system: 4C8a10 cells (revertants of Haras-transformed NIH3T3 fibroblasts); experiment: Tumor formation of cells pretreated in culture and injected s.c. into athymic nude mice; assay type: in vivo; settings: cells pretreated with NaPA 1.5 mg/ml; after 3 weeks
Source text: One-two weeks later the cells were transplanted subcutaneously into athymic mice.
(§1) The experimental model involved nonmalignant 4C8a10 cells (revertants of Haras-transformed NIH3T3 fibroblasts). […]
Frederick Cancer Research Facility).

4C8a10 cells = experiment: Malignant phenotype in culture / growth on matrigel; assay type: cell-based
Procedure: as §1
^b Cells were plated on top of matrigel (reconstituted basement membrane) and observed for malignant growth pattern, i.e., active replication, development of characteristic processes, and invasion.

10T1/2 = experiment: Cell proliferation (cell number); assay type: cell-based, mouse; settings: treated for four days
Procedure: The adherent cells were detached with trypsin/EDTA and the cell number determined using a hemocytometer. Data points indicate the mean ± S.D. of duplicates from two independent experiments. The cell lines were obtained from the American Type Culture Collection and maintained in RPMI 1640 (HL-60) or Dulbecco's Modified Eagle's Medium (10T1/2) supplemented with 10% heat inactivated fetal calf serum (Gibco Laboratories), 2 mM L-Glutamine, and antibiotics.

[3] = test system: premalignant 10T1/2 cells; experiment: cells
Procedure: C. Quantitation of adipocytosis. Lipids stained with Oil-Red O were extracted with butanol, and the optical density at 510 nm determined.
Lower: Quantitation of adipocytosis. Cells were fixed with 37% formaldehyde and stained with Oil-Red O. The stained intracellular lipid was extracted with butanol, and the optical density was determined using a Titertek Multiskan MC, manufactured by Flow Laboratories, at a wavelength 510 nm.

[4] = test system: adipocyte-specific aP2 gene; experiment: Northern blot analysis of aP2 expression; assay type: cell-based, mouse; settings: treated confluent 10T1/2 cultures
Procedure: (§2) Cytoplasmic RNA (20 µg/lane) was subjected to Northern blot analysis using ^32P-labeled specific DNA probes. Ethidium bromide-stained […] indicates the relative amounts of total RNA in each lane. Figure A. Induction of a P2 expression in 10T1/2 cells. […] Figure B. Kinetics of myc inhibition and HLA-A induction in HL-60. […] Figure C. Dose-dependent and specificity of effect.
In an attempt to explore the possible mechanism of action, Northern blot analysis of HL-60 and 10T1/2 cells was performed according to conventional methods. […] The aP2 cDNA probe was labeled with [^32P]dCTP (NEN) using a commercially available random primed DNA labeling kit. Ethidium bromide-stained 28S rRNA indicates the relative amounts of total RNA in each lane.
Expression of the adipocyte-specific aP2 gene was induced within 24 hrs in treated 10T1/2 confluent cultures reaching maximal mRNA levels by 72 hrs.

myc = experiment: Northern blot analysis of myc mRNA in HL-60; assay type: cell-based, human; settings: HL-60, NaPA 0.8 mg/ml
Procedure: as §2
(§3) In HL-60, cell transformation has been linked to myc amplification and overexpression, and differentiation would typically require down regulation of myc expression. [Collins, S.J. The HL-60 promyelocytic leukemia cell line: Proliferation, differentiation, and cellular oncogene expression. Blood. 70:1233-1244 (1987)]. […] The 32P-labeled probes used were myc 3rd exon (Oncor) and HLA-A3 Hind III/EcoRI fragment. […] This occurred within 4 hours of treatment, preceding the phenotypic changes detectable by 48 hrs, approximately two cell cycles, after treatment. Similar kinetics of myc inhibition have been reported for other differentiation agents such as dimethyl sulfoxide, sodium butyrate, bromodeoxyuridine, retinoids, and 1,25-dihydroxyvitamin D3. […] It is believed that this may enhance the immunogenicity of tumors in vivo.

HLA-A = experiment: Northern blot analysis of HLA-A mRNA in HL-60; assay type: cell-based, human; settings: HL-60, NaPA 0.8 and 1.6 mg/ml
Procedure: as §2, §3

C3H 10T1/2 Cells = experiment: Tumorigenicity of treated cells in athymic mice; settings: NaPA 1.6 mg/ml continuous, time 13 weeks
Procedure: Premalignant cells (3-4 x 10^5) were plated in 75 cm^2 dishes and 5-AzadC 0.1 µM was added to the growth medium at 20 and 48 hrs after plating. The cells were then subcultured in the absence of the nucleoside analog for an additional seven weeks. […] For the tumorigenicity assay, 4-5 week-old female athymic nude mice were inoculated s.c. with 1 x 10^6 cells and observed for tumor growth at the site of injection.

10T1/2 cells = experiment: Neoplastic foci formation in culture; settings: 800-1600 µg/ml for seven weeks
Source text: […] The cells were then subcultured in the absence of the nucleoside analog for an additional seven weeks. […] For the tumorigenicity assay, 4-5 week-old female athymic nude mice were inoculated s.c. with 1 x 10^6 cells and observed for tumor growth at the site of injection.

[5] = test system: primary human skin FS4 fibroblasts; experiment: Growth of normal cells; assay type: cell-based; settings: Fibroblast, read-out: concentration needed to cause a significant inhibition of growth
Melanoma SK MEL 28 = experiment: Tumor cell growth / proliferation; assay type: cell-based; settings: Homo sapiens
Astrocytoma U343 = experiment: Tumor cell growth / proliferation; assay type: cell-based
lung adenocarcinoma H661 = experiment: Tumor cell growth / proliferation; assay type: cell-based; settings: Homo sapiens, NCI-H661; read-out: concentration causing about 50% inhibition of growth
[6] = cited from earlier work
Malignant Melanoma A375 = experiment: Tumor cell growth / proliferation

In the case of `O=C([O-])Cc1ccccc1.[Na+]` [NaPA, sodium phenylacetate], the “formation of ras-transformed foci” value [1] is reported as “dose-dependent reduction in the formation of ras-transformed foci”, the “Tumor Formation Incidence” value [2] is reported as 0/8 and the Growth on matrigel (4C8a10 cells; NaPA 1.5 mg/ml) is reported as “-”. The “development of the malignant phenotype” value (4C8a10 cells; in 5-AzadC treated cultures) was “prevented the development of the malignant phenotype”, the cell proliferation (10T1/2) was “dose dependent inhibition of cell proliferation” and the cytotoxic effect ([3]; 800 µg/ml) was “totally free of cytotoxic effect”. For the same molecule, the “Differentiation at 1 mM” value ([3]; 1 mM, sodium salts) was 65%, the “adipocyte conversion, share of the cell population” value ([3]; 10T1/2 model) was “over 80%” and the DC50 ([3]; Mus musculus, Adipocyte, read-out: DC50, concentration of compound causing 50% differentiation) was 700 µM. For the same molecule, the “time to induction of aP2 gene expression” value [4] was no more than 24 h, the “time to maximal aP2 mRNA levels” value [4] was no more than 72 h and the “time to decline in the amounts of myc mRNA” value (myc) was no more than 4 h. For the same molecule, the “HLA-A mRNA” value (HLA-A) was “time- and dose-dependent accumulation of HLA-A mRNA”, the “Tumors Diameter” value (C3H 10T1/2 Cells) was 0 mm ± S.D and the “Tumors Incidence” value (C3H 10T1/2 Cells; 1 x 10^6 cells s.c.) was 0/8. For the same molecule, the “neoplastic foci in vitro and tumors in recipient mice” value (10T1/2 cells) was “forming neither neoplastic foci in vitro nor tumors in recipient mice”, the minimal effective concentration [5] was 2000 to 4000 µg/mL and the inhibition at 800 µg/mL (Melanoma SK MEL 28; read-out: % Inhibition by NaPA 0.8 mg/ml, 0.8 mg/ml) was greater than 50%. The IC50 (Melanoma SK MEL 28; read-out: concentration causing about 50% inhibition of growth) was 400 to 800 µg/mL, the IC50 (Astrocytoma U343; astrocytoma 343, read-out: concentration causing about 50% inhibition of growth) was 400 to 800 µg/mL and the inhibition at 800 µg/mL (Astrocytoma U343; read-out: % Inhibition by NaPA 0.8 mg/ml, U343, 0.8 mg/ml) was no less than 50%. For the same molecule, the IC50 (lung adenocarcinoma H661) was 400 to 800 µg/mL, the plasma levels ([6]; children with urea cycle disorders, infusion 300-500 mg/kg/day) was “approximately 800 µg/ml” and the plasma levels ([6]; humans, intravenous infusion 250-500 mg/kg/day) was 600 to 800 µg/mL. For the same molecule, the “concentration causing about 50% inhibition of growth” value (Malignant Melanoma A375; A375) was 0.4 to 0.8 mg/mL, the “% Inhibition by NaPA 0.8 mg/ml” value (Malignant Melanoma A375; A375, 0.8 mg/ml, within one week of treatment) was no less than 70% and the Growth (Malignant Melanoma A375; NaPA 400 µg/ml) was 63.3 % of control. For the same molecule, the Viability (Malignant Melanoma A375; NaPA 400 µg/ml) was greater than 95%.

Source: patent publication EP0567613B1, “COMPOSITIONS FOR THERAPY AND PREVENTION OF CANCER” (The Government of the United States of America, as …, priority 1991, dated 1993)
